From US5891434A, “Monoclonal antibodies to the APO-1 antigen” (Centocor, Inc., priority 1995, dated 1999)

Legend:
[1] = system: membrane blebbing induced by anti-APO-1; experiment: kinetics of membrane blebbing induced by anti-APO-1, in the presence of chelators; format: cell-based; conditions: 10 mM
From the text: The CCRF-CEM.S2 subclone was obtained by cloning cells under limiting dilution conditions from the CCRF-CEM T cell line at one cell per well in 96-well microtiter plates.

[2] = system: DNA fragmentation induced by anti-APO-1; experiment: endonuclease-mediated DNA fragmentation induced by anti-APO-1, in the presence of Ca2+ channel blockers; format: cell-based; conditions: Ca2+ channel blocker at 50 μM
Description: CCRF-CEM.S2 cells (10^6 per milliliter) were incubated with MAb (1 μg/ml) in culture medium at 37° C. At various times, aliquots of 10^6 cells were removed and DNA was prepared.
SKW6.4 cells were either incubated with the isotype-matched control MAb FII20, FII23 (nonbinding MAb), or anti-APO-1 in microcultures for 24 hours before labeling with [^3 H]-thymidine for a further 4 hours. The data represent the mean of duplicate cultures with a variation of less than 5%. The cells were cultured in RPMI 1640 medium (Gibco, Grand Island, N.Y.), supplemented with 2 mM L-glutamine, streptomycin (100 μg/ml), penicillin (100 U/ml), 20 mM Hepes buffer pH 7.3, and 10% heat-inactivatedfetal bovine serum (Conco Lab-Division, Wiesbaden, FRG). For microcultures 1×10^4 cells per well were cultured in duplicates in flat bottom 96-well microtiter plates (Tecnomara, Fernwald, FRG) (200 μfinal volume per well). After 24 hours, the cells were labeled with 0.5 μCi of [^3 H]-thymidine (Amersham, Braunschweig, FRG)) for 4 hours. Before harvesting, the microcultures were examined by microscopic inspection. For DNA fragmentation 1×10^6 cells were washed with cold phosphate-buffered saline and disrupted with NTE buffer, pH 8 (100 mM NaCl, 10 mM Tris-HCl, 1 mM EDTA) containing 1% SDS and proteinase K (0.2 mg/ml). […]

| Compound | influence on kinetics of membrane blebbing induced by anti-APO-1 (within 30 minutes) [1] | inhibition of endonuclease-mediated DNA fragmentation induced by anti-APO-1 [2] |
| --- | --- | --- |
| O=C(O)CN(CCN(CC(=O)O)CC(=O)O)CC(=O)O [EDTA] | not influenced | – |
| O=C(O)CN(CCOCCOCCN(CC(=O)O)CC(=O)O)CC(=O)O [EGTA] | not influenced | – |
| COC(=O)C1=C(C)NC(C)=C(C(=O)OC)C1c1ccccc1[N+](=O)[O-] [Nifedipin] | – | not inhibited |
| Furamicin | – | not inhibited |
